Data from patent publication US8318196B2, “Formulations comprising a vitamin and the use thereof to make fortified feed and personal care formulations” (Akzo Nobel N.V., priority 2006, dated 2012).

Experiment: Transmission of aqueous vitamin / castor oil ethoxylate formulations (Turbiscan LAb)
Format: physicochemical
Settings: ingredients preheated to 50° C.
Experimental: Castor oil ethoxylates were evaluated in formulations with various vitamins by mixing 4 g of a vitamin with 4 g of the castor oil ethoxylate and subsequently adding 28 g water. All ingredients were preheated to 50° C. The transmission (light passing the through the emulsion) was measured using standard Turbiscan™ LAb equipment ex Formulaction. In the evaluation of the samples the highest transmission is looked for, since it indicates a clearer (and better) formulation.

[1] = Comparative Example B: 4 g vitamin + 4 g CO36EO + 28 g water, unit assumed
[2] = Example 1: 4 g vitamin + 4 g CO20EO + 28 g water, higher = clearer, better, unit assumed

transmission (light passing through the emulsion) (Comparative Example A: 4 g vitamin + 4 g CO28EO + 28 g water)	SMILES	transmission (light passing through the emulsion) [1]	transmission (light passing through the emulsion) [2]	transmission (light passing through the emulsion) (Comparative Example A: 4 g vitamin + 4 g CO28EO + 28 g water, unit assumed)
Not stable	CC(=O)OC/C=C(C)/C=C/C=C(C)/C=C/C1=C(C)CCCC1(C)C [Vit A acetate]	0%	2.2%	
	C=C1CC[C@H](O)C/C1=C/C=C1\CCC[C@]2(C)[C@@H]([C@H](C)CCCC(C)C)CC[C@@H]12 [Vit D3]	2%	56.7%	64.4%
